Compound	melting point [°C]
CN1CC(CCN2CCN(c3ccc(Cl)c(Cl)c3)CC2)OC1=O (stereo not drawn)	89 to 91
O=C(O)CC1CSc2sccc2C1=O (stereo not drawn)	124 to 127
c1ccc2c(c1)nc(Nc1ccc3cc[nH]c3c1)c1nc(C3CCCC3)[nH]c12	260 to 261
CCN(C)C(N)=C(C#N)C(N)=S	121 to 124
BrCc1cc(CBr)cc(CBr)c1	95.5 to 97.5
CCOC(=O)C1=C(COCc2nnn[nH]2)NC(C)=C(C(=O)OC)C1c1cccc(Cl)c1Cl (stereo not drawn)	112 to 114
COc1ccc(CC(C(N)=O)S(C)=O)cc1C(=O)NCc1ccc(C(F)(F)F)cc1 (stereo not drawn)	170 to 171
CC(=O)OCC1OC(n2c3ncccc3c3c4c(c5c6cccnc6[nH]c5c32)C(=O)N(C)C4=O)C(OC(C)=O)C(OC(C)=O)C1OC(C)=O (stereo not drawn)	> 300
CC(C)(C)CC(C)(C)NCC(O)COc1ccccc1C(=O)Nc1cccc2[nH]ccc12 (stereo not drawn)	140
NCCOc1cc(F)cc2c1OCCC2	68 to 70
CN(C)c1ccccc1CSC1=NC(=O)C(C)(C)N1	113 to 115
CC(C)NN(C[C@@H](O)[C@H](Cc1ccccc1)NC(=O)OCc1ccccc1)C(=O)OC(C)(C)C	118 to 120
C#CCNC(=O)Oc1cccc2c1OC(C)(C)O2	107 to 109
Cc1cccc(Sc2ccc(C(=O)O)s2)c1	73 to 75
CCc1c(CCN2CCC(c3noc4cc(F)ccc34)CC2)sc2c1NC(=O)CCC2	115 to 117
CC(C)(C)NC(=O)CN1C(=O)C(N)CC(c2ccc(Cl)c(Cl)c2)c2ccccc21 (stereo not drawn)	140 to 150
CCCCc1cc(C(=O)O)ncc1C(=O)O	239
Cc1cccc(C)c1N1C(=N)N(c2c(C)cccc2C)C(C)C1C (stereo not drawn)	155 to 157
CCOC(=O)CC(=O)c1cc2cc(F)c(F)cc2nc1Cl	107
OCc1ccc(-c2nn(Cc3ccccc3)c3ncccc23)o1	104
CCOC(=O)CNC(=O)[C@@H](C)NC(=O)CNC(=O)CSC(=O)c1ccccc1	137
O=C(O)CCCc1cc2cc(Cl)ccc2n1S(=O)(=O)c1ccc2ccccc2c1	166
Cc1cc(C2=NN(C(=O)NC3CC3)C(C)Cc3cc4c(cc32)OCO4)ccc1[N+](=O)[O-] (stereo not drawn)	171 to 175

Compound	melting point [°C]
CN1N=C2c3ccccc3CCC2C1c1ccncc1 (stereo not drawn)	195 to 198
CCCCc1nn(-c2ccc(C(F)(F)F)cn2)cc1CCCOc1c(CC(=O)O)cccc1OC	121 to 122
CC(=O)N1C(C(=O)NC2CCC(O)CC2)C(c2cccc(Cl)c2F)C2(C(=O)Nc3cc(Cl)ccc32)C1CC(C)(C)C (stereo not drawn)	220
CCCCN(CCCC)C(=O)NCCc1ccc(-c2csc(NC(=O)OC(C)(C)C)n2)cc1	70 to 75
CC1(C)CCc2ccccc2C1c1cncnc1SCF (stereo not drawn)	126 to 128
CCOC(=O)C(Cc1ccc(C(F)(F)F)cc1)C(=O)c1ccc(F)cc1F (stereo not drawn)	34 to 35
COC(=O)[C@H](Cc1ccc(N)cc1)NC(C)=O	141
Cc1ccc(CCCCOCCCCCCNCC(O)c2ccc3c(n2)COC(c2ccccc2)O3)cc1 (stereo not drawn)	74
COc1ccc(CC(=O)NCCc2cc3c(cc2C)CCC3)cc1OC	144 to 145
Cn1nnc(-c2ccc(-c3nnn(C)n3)nc2)n1	225 to 226
O=c1[nH]c(C(F)(F)F)nc2ccccc12	220
Cn1c(C(F)(F)F)cc(F)c(-c2ccc(Cl)cc2)c1=O	120 to 122
COC(=O)C(I)C(O)c1ccccc1 (stereo not drawn)	56
O=C(NCCCCCCOC(=O)N1CCC2(CCCC2)CC1)OC1CCN(C(=O)Oc2ccc(-c3ccccc3)cc2)CC1	110 to 111
O=C(NC(CC1CCCC1)C(=O)NC1CCCN(S(=O)(=O)c2ccccc2)CC1=O)c1ccco1 (stereo not drawn)	88 to 90
O=c1cc[nH]c2c(Sc3nc4ccccc4[nH]3)cccc12	> 240
CCOc1ccc([N+](=O)[O-])c(NC2Cc3ccccc3C2)c1	151
CCN1CC(=O)N(c2cc(F)ccc2C)C1=S	98 to 100
CC(C)(C)c1cc(SCCC(=O)O)cc(C(C)(C)C)c1O	108 to 110
COc1ccc([C@@H]2Sc3cc(Cl)ccc3N(CCN(C)C(=O)OCc3ccccc3)C(=O)[C@@H]2O)cc1	108
O=C(N1CCc2cc(S(=O)(=O)Cl)ccc2C1)C(F)(F)F	110 to 112
Nc1cccc(Cc2cc(O)ccc2O)c1	151 to 152

Second part, the molecule after the results:

melting point [°C]	Compound
61	ClCCCCCOc1ccccc1OCCCCCCl
65 to 66	COCCN=Cc1cc(OC)c(OC)cc1[N+](=O)[O-]
102 to 103	Cc1cccc2c1nc(COc1ccc(Cl)cc1)n2CCC(C)C(=O)NCCCN1CCCCC1 (stereo not drawn)
86 to 88	Cc1ccccc1-c1nc(-c2cccc(Cl)c2)n(C)n1
99 to 100	Cc1cc(=O)n(C2CCCCC2)n1C
167 to 169	Cn1c(C(F)(F)F)cc(=O)n(-c2ccc(OCc3ccc(Cl)cc3)cc2)c1=O
264 to 267	Cc1nc2cnccc2n1-c1ccc2c(c1)CC(C(=O)O)C2 (stereo not drawn)
135	O=S(=O)(c1cccs1)N(CC1CC1)c1cccc2cc(-c3ncc(CCl)s3)[nH]c12
99 to 102	CSc1nc(Cc2ccccc2N)n[nH]1
251 to 253	CCOC(=O)c1ncn2c1c(S)nc1ccccc12
90 to 95	O[C@H](COc1cccc2[nH]ccc12)CN1CCC(c2c[nH]c3cc(Cl)ccc23)CC1
188	O=C(N[C@H]1CC[C@H](CCN2CCC(c3cccc4c3CCO4)CC2)CC1)c1ccc(Cl)cc1Cl
95 to 97.5	Cn1c(CC#N)ccc1C(=O)c1ccc(C(F)(F)F)cc1
263 to 266	CC(C)(O)c1ccc(-c2cnc3[nH]c(=O)n(CCC4CCOCC4)c3n2)cc1
172	COc1ccc(-n2cnnc2SC)cc1
256 to 257	COc1cc(Nc2c(C#N)cnc3cc(OC)c(Br)cc23)c(Cl)cc1Cl
238 to 240	CNc1ncn(-c2c(C)cccc2Br)c(=O)n1
92.9	CCOCc1nnc2c(C)c(Cl)ccn12
278 to 284	N#CC(C(=O)Nc1cccc(F)c1)C(=O)c1nn(-c2ccccc2)c2c1Cc1ccccc1-2 (stereo not drawn)
186 to 188	COC(=O)c1ccc(C(=O)N2Cc3cccn3Cc3ccccc32)cc1
146 to 149	CCc1cc(C(=O)c2ccccc2Cl)c(-n2nnnc2CNC(=O)c2cc3ccccc3[nH]2)s1
179	FC(F)(F)c1cc(-c2nnn[nH]2)cc(C(F)(F)F)c1
282 to 284	O=[N+]([O-])c1cccc(Nc2nccc(-c3ccncc3)n2)c1
82 to 83	CC(=O)c1cccc(Oc2cccc(Cl)n2)c1
48 to 50	Cn1ccc(C(=O)c2ccc(Cl)cc2)c1
85 to 87	O=C(OCc1ccccc1)[C@H](Cc1ccccc1)NC(=O)N1CCOCC1
134 to 136	O=c1c2cc(Oc3ccc(Cl)cc3)ccc2nnn1Cc1cccnc1
39 to 40	O=C(C1CCC1)N1CCSCC1

— a melting point compilation (Tetko et al.; mined from patent text by program, amines drawn as free bases though some values may be those of a salt)
